From patent US20130212738A1, “COMPOSITION FOR PHYTOCHELATIN TRANSPORT” (POSTECH ACADEMY-INDUSTRY FOUNDATION, priority 2010, published 2013)

What was measured:
[1] = system: atabcc1 atabcc2 double knock-out A. thaliana; conditions: in vivo
AtABCC1 = target: T1, AtABCC1 (Arabidopsis thaliana, UniProt Q9C8G9); assay: PC2 transport into microsomal vesicles of SM7 yeast expressing AtABCC1; assay type: biochemical, A. thaliana; conditions: vanadate 1 mM, NH4Cl 5 mM, PC 25 μM
T1 construct: expressed in transfected cells; host or cells: Saccharomyces cerevisiae SM7 (ycf1/yhl035c/yll015w/yll048c-deficient, expressing TaPCS1); microsomal vesicles

AtABCC2 = target: T2, AtABCC2 (Arabidopsis thaliana, UniProt Q42093); assay type: biochemical, A. thaliana
T2 construct: expressed in transfected cells; host or cells: Saccharomyces cerevisiae SM7 (ycf1/yhl035c/yll015w/yll048c-deficient, expressing TaPCS1); microsomal vesicles

[2] = system: A. thaliana mesophyll vacuoles; assay: PC2 transport into intact vacuoles isolated from A. thaliana mesophyll protoplasts; assay type: biochemical
[3] = target: PC2-As complex (phytochelatin PC2 in complex with As(III)); assay: cell-based or functional assay

Compound	growth of the atabcc1 atabcc2 knock-out line compared with the wild type [1]	concentration of PC at half maximum of the absorption (transport) activities, 35S-PC2 uptake into yeast SM7 microsomal vesicles [3] [µM]	also measured
O=[As]([O-])([O-])O.[Na+].[Na+] [As(V), Na2HAsO4]	dramatically inhibited	–	–
[Cd] [Cd, cadmium]	dramatically inhibited	–	–
[O]=[V]([O-])([O-])[O-] [vanadate]	–	–	inhibition of absorption of PC2—As complex into the yeast vesicle (AtABCC1): remarkably reduced; inhibition of absorption of PC2—As complex into the yeast vesicle (AtABCC2): remarkably reduced; residual transport activity (PC transport of isolated vacuoles) [2]: 25±7%
AtABCC1 (from UniProt Q9C8G9 1-1622)	–	350	–
AtABCC2 (from UniProt Q42093 1-1623)	–	350	–
arsenite	–	–	transport of arsenic in a non-chelated form (ICP-MS) (AtABCC2): not transported
